Data taken from ChEMBL document CHEMBL4480380, “Identification and biological evaluation of novel benzothiazole derivatives bearing a pyridine-semicarbazone moiety as apoptosis inducers via activation of procaspase-3 to caspase-3” (Medchemcomm, 2019).
Activity calls are given as the source filed them. The rule behind the calls is not given here.

How the values were obtained:
[1] = system: U-937; test: Antiproliferative activity against human procaspase-3 over-expressing U937 cells after 24 hrs by CCK-8 assay; type: functional, cell-based; details: U-937, 24 h
[2] = system: MCF7; test: Antiproliferative activity against human MCF7 cells after 24 hrs by CCK-8 assay; type: functional, cell-based; details: MCF7, 24 h
[3] = Selectivity ratio of IC50 for human MCF7 cells to IC50 for human procaspase-3 over-expressing U937 cells; type: functional
[4] = system: U-937; test: Induction of apoptosis in human U937 cells assessed as caspase-3 activity at 30 uM using Ac-DEVD-AFC as substrate preincubated for 16 hrs followed by substrate addition and measured after 60 mins by fluorescence assay (reference value: 7+/- 1%); type: functional
[5] = organism: Danio rerio; test: Induction of apoptosis in zebrafish AB embryos assessed as accumulation of dying cells in cranial neural crest at 40 to 60 uM after 24 hrs post fertilization by acridine orange staining-based fluorescence microscopic analysis; type: functional, organism-based
[6] = organism: Danio rerio; test: Induction of apoptosis in zebrafish AB embryos assessed as accumulation of dying cells in head at 40 to 60 uM after 24 hrs post fertilization by acridine orange staining-based fluorescence microscopic analysis; type: functional, organism-based
[7] = Half life in rat liver microsomes in presence of NADPH by LC-MS analysis; type: ADME, Microsome
[8] = Toxicity in zebrafish AB embryos assessed as induction of mortality at 40 uM after 72 hrs post fertilization by stereo microscopic analysis; set-up: species or system Danio rerio; details: in vivo
[9] = Toxicity in zebrafish AB embryos at 5 to 20 uM measured at 24 to 72 hrs post fertilization by stereo microscopic analysis; set-up: species or system Danio rerio; details: in vivo
[10] = system: U-937; test: Induction of apoptosis in human U937 cells assessed as early apoptotic cells at 2.6 uM after 48 hrs by Annexin V-FITC/propidium iodide staining-based flow cytometric analysis (reference value: 6.16%); type: functional
[11] = Half life in human liver microsomes in presence of NADPH by LC-MS analysis; type: ADME, Microsome
[12] = system: U-937; test: Induction of apoptosis in human U937 cells assessed as late apoptotic cells at 5.2 uM after 24 hrs by Annexin V-FITC/propidium iodide staining-based flow cytometric analysis (reference value: 3.27%); type: functional
[13] = Half life in mouse liver microsomes in presence of NADPH by LC-MS analysis; type: ADME, Microsome
[14] = Intrinsic clearance in rat liver microsomes in presence of NADPH by LC-MS analysis; type: ADME, Microsome; details: read-out: CLH
[15] = system: U-937; test: Induction of apoptosis in human U937 cells assessed as late apoptotic cells at 5.2 uM after 48 hrs by Annexin V-FITC/propidium iodide staining-based flow cytometric analysis (reference value: 3.89%); type: functional
[16] = system: U-937; test: Induction of apoptosis in human U937 cells assessed as late apoptotic cells at 2.6 uM after 24 hrs by Annexin V-FITC/propidium iodide staining-based flow cytometric analysis (reference value: 3.27%); type: functional
[17] = organism: Danio rerio; test: Induction of apoptosis in zebrafish AB embryos assessed as increase in bax mRNA expression at 40 to 60 uM after 24 hrs post fertilization by RT-PCR analysis; type: functional, organism-based
[18] = system: U-937; test: Induction of apoptosis in human U937 cells assessed as early apoptotic cells at 5.2 uM after 24 hrs by Annexin V-FITC/propidium iodide staining-based flow cytometric analysis (reference value: 4.88%); type: functional
[19] = Intrinsic clearance in human liver microsomes in presence of NADPH by LC-MS analysis; type: ADME, Microsome; details: read-out: CLH
[20] = system: U-937; test: Induction of apoptosis in human U937 cells assessed as late apoptotic cells at 2.6 uM after 48 hrs by Annexin V-FITC/propidium iodide staining-based flow cytometric analysis (reference value: 3.89%); type: functional
[21] = system: U-937; test: Induction of apoptosis in human U937 cells assessed as early apoptotic cells at 5.2 uM after 48 hrs by Annexin V-FITC/propidium iodide staining-based flow cytometric analysis (reference value: 6.16%); type: functional
[22] = Intrinsic clearance in mouse liver microsomes in presence of NADPH by LC-MS analysis; type: ADME, Microsome; details: read-out: CLH
[23] = system: U-937; test: Induction of apoptosis in human U937 cells assessed as early apoptotic cells at 2.6 uM after 24 hrs by Annexin V-FITC/propidium iodide staining-based flow cytometric analysis (reference value: 4.88%); type: functional
[24] = target: T1, Caspase-3 (Homo sapiens) (UniProt P42574); test: Activation of procaspase-3 (unknown origin) at 10 uM using Ac-DEVD-AFC as substrate preincubated for 4 hrs followed by substrate addition and measured after 5 mins by fluorescence assay relative to control
T1 sequence (whole entry): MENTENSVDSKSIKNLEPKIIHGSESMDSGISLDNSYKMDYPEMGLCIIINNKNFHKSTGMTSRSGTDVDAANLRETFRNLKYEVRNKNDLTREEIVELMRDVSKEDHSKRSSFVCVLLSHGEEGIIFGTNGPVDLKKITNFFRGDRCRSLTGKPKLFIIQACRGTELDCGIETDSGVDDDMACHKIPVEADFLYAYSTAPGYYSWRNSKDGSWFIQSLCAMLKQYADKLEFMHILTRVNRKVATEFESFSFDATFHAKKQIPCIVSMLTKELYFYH

IC50 [1] [µM]	IC50 [2] [µM]	Compound	Ratio IC50 [3]	Activity [4] [%]	other results
6	> 40	C=CCc1cccc(/C=N/NC(=O)CN2CCN(Cc3ccccc3)CC2)c1O [PAC-1]	6.6	100	
> 25	12.1	CN(C)Cc1ccc(NC(=O)NN=C(c2ccccc2)c2ccccc2)cc1	<1	28	
20.1	> 40	C/C(=N\NC(=O)Nc1nc2ccc(CN(C)C)cc2s1)c1ccccn1	2	68	
> 40	> 40	CC1CCN(Cc2ccc(NC(=O)N/N=C/c3ccccn3)cc2)CC1			

Second part, the compound before the results:

Compound	IC50 [1] [µM]	IC50 [2] [µM]	Ratio IC50 [3]	Activity [4] [%]	other results
CCN(CC)Cc1ccc(NC(=O)NN=C(c2ccccn2)c2ccccn2)cc1	> 40	> 40			
C/C(=N\NC(=O)Nc1nc2ccc(CN3CCC(C)CC3)cc2s1)c1ccccn1	5.2	12.4	2.3	99	Activity [5]: Active; Activity [6]: Active; half-life [7]: 95.5 min; Activity [8]: Toxic; Activity [9]: Non-Toxic; Activity [10]: 19.59%; half-life [11]: 77.9 min; Activity [12]: 8.15%; half-life [13]: 53.6 min; CLint scaled [14]: 26 mL/min/kg; Activity [15]: 18.7%; Activity [16]: 6.3%; Activity [17]: Active; Activity [18]: 19.79%; CLint scaled [19]: 22.3 mL/min/kg; Activity [20]: 9.17%; Activity [21]: 28.06%; CLint scaled [22]: 102 mL/min/kg; Activity [23]: 16.16%; Activity [24]: 77.8%
CCN(CC)Cc1ccc(NC(=O)NN=C(c2ccccc2)c2ccccc2)cc1	> 25	13.1	<1	20	
O=C(c1ccc(F)cc1)C1CCN(CCn2c(=O)[nH]c3ccccc3c2=O)CC1 [KETANSERIN]					half-life [7]: 14.4 min; half-life [11]: 36.1 min; half-life [13]: 20.5 min; CLint scaled [14]: 173 mL/min/kg; CLint scaled [19]: 48.2 mL/min/kg; CLint scaled [22]: 267 mL/min/kg
CN(C)Cc1ccc(NC(=O)NN=C(c2ccccn2)c2ccccn2)cc1	> 40	> 40			
CN(C)Cc1ccc(NC(=O)N/N=C/c2ccccn2)cc1	> 40	> 40			
CCN(CC)Cc1ccc2nc(NC(=O)N/N=C/c3ccccn3)sc2c1	24.8	> 40	1.6		
C/C(=N\NC(=O)Nc1ccc(CN2CCC(C)CC2)cc1)c1cnccn1	> 40	> 40			
CCN(CC)Cc1ccc2nc(NC(=O)N/N=C(\C)c3cnccn3)sc2c1	> 40	> 40			
